Results reported in ChEMBL document CHEMBL1201862, “PubChem BioAssay data set” (2004).
One block for each compound: values may come before it. Calls of active or inactive are those of the source.

What was measured:
[1] = target: T1, Apoptotic protease-activating factor 1 (Homo sapiens, UniProt O14727); assay type: functional
T1 sequence (O14727 whole entry): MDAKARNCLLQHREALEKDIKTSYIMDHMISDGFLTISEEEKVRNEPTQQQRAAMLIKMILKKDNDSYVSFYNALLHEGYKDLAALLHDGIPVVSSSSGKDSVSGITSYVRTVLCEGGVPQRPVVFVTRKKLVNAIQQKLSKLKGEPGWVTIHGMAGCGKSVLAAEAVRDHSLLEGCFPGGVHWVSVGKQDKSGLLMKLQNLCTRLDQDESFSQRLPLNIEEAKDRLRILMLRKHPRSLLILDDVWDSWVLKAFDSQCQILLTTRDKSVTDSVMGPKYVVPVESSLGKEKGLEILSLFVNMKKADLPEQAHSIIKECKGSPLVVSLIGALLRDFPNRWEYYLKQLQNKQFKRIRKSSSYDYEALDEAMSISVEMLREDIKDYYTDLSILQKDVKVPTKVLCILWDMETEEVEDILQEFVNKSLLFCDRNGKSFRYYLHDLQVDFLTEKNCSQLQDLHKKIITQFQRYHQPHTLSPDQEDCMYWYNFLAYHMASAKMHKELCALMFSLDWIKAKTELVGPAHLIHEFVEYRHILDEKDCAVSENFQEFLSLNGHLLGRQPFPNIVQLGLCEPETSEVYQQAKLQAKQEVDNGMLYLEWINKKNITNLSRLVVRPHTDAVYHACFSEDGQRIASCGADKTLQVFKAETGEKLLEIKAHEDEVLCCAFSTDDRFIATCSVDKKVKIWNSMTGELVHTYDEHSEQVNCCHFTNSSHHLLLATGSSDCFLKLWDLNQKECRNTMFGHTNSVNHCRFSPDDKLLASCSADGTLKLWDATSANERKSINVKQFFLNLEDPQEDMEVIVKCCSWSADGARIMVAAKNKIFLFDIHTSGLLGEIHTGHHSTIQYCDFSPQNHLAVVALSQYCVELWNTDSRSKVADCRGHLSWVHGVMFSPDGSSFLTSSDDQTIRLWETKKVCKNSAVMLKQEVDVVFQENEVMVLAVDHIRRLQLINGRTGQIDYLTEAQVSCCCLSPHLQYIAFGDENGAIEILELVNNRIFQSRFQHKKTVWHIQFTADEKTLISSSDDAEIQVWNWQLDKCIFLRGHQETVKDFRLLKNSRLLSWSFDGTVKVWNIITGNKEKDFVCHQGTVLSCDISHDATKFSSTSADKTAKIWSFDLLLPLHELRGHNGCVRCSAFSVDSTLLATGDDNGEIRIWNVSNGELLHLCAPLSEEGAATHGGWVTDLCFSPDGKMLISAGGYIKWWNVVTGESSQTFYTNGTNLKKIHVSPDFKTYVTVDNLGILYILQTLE

[2] = target: T2, Histone-lysine N-methyltransferase NSD2 (Homo sapiens, UniProt O96028); assay type: biochemical
T2 sequence (O96028 whole entry): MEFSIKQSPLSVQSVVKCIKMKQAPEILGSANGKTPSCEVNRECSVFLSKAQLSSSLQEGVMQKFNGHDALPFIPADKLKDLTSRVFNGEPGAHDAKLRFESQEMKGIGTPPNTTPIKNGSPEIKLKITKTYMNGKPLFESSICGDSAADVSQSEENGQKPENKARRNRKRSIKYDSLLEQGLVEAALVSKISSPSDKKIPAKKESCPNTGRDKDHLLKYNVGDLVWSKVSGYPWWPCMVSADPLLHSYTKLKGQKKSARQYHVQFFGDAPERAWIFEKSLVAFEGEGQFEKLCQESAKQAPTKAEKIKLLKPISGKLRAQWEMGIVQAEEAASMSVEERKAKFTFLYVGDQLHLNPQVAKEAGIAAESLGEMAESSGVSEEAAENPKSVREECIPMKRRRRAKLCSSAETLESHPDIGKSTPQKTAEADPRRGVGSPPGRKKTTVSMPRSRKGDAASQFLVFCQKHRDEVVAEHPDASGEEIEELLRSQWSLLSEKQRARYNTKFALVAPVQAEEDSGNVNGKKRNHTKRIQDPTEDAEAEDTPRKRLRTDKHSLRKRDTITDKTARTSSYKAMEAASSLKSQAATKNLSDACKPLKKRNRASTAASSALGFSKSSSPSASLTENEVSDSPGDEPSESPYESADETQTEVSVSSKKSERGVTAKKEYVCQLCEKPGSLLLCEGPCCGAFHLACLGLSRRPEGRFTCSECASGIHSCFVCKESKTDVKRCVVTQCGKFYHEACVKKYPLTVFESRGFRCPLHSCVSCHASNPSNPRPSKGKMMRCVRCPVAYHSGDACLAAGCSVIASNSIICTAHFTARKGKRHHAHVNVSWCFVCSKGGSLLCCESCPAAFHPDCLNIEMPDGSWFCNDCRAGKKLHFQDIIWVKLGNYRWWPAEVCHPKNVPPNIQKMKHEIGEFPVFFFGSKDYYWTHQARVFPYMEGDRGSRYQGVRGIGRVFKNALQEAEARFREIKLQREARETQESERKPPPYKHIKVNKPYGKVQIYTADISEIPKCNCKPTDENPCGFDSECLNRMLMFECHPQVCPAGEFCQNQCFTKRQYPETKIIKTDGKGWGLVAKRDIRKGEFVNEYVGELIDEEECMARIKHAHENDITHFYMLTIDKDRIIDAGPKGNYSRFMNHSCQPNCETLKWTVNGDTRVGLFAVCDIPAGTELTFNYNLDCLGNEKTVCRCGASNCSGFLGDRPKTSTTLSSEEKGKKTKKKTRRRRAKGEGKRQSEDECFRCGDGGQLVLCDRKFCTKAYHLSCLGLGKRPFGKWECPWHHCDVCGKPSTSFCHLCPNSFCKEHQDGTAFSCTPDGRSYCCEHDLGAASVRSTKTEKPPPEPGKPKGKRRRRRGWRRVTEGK

[3] = target: cAMP-dependent protein kinase catalytic subunit alpha (Homo sapiens, UniProt P17612); assay type: functional
[4] = target: Serine/threonine-protein kinase pim-1 (Homo sapiens, UniProt P11309); assay type: functional
Chain of Serine/threonine-protein kinase pim-1 (P11309 whole entry): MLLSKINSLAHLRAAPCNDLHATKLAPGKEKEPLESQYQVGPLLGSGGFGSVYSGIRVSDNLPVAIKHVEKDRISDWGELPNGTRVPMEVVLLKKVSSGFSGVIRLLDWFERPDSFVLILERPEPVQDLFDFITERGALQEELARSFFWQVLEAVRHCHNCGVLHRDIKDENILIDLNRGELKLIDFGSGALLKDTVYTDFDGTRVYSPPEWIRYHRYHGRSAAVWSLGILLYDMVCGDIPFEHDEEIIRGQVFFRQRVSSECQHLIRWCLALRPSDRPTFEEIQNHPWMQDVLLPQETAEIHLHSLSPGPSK

Focal adhesion kinase 1 = Focal adhesion kinase 1 (Homo sapiens, UniProt Q05397); assay type: functional;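 further: measured as one member of a kinome panel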
Chain of Focal adhesion kinase 1 (Q05397 whole entry): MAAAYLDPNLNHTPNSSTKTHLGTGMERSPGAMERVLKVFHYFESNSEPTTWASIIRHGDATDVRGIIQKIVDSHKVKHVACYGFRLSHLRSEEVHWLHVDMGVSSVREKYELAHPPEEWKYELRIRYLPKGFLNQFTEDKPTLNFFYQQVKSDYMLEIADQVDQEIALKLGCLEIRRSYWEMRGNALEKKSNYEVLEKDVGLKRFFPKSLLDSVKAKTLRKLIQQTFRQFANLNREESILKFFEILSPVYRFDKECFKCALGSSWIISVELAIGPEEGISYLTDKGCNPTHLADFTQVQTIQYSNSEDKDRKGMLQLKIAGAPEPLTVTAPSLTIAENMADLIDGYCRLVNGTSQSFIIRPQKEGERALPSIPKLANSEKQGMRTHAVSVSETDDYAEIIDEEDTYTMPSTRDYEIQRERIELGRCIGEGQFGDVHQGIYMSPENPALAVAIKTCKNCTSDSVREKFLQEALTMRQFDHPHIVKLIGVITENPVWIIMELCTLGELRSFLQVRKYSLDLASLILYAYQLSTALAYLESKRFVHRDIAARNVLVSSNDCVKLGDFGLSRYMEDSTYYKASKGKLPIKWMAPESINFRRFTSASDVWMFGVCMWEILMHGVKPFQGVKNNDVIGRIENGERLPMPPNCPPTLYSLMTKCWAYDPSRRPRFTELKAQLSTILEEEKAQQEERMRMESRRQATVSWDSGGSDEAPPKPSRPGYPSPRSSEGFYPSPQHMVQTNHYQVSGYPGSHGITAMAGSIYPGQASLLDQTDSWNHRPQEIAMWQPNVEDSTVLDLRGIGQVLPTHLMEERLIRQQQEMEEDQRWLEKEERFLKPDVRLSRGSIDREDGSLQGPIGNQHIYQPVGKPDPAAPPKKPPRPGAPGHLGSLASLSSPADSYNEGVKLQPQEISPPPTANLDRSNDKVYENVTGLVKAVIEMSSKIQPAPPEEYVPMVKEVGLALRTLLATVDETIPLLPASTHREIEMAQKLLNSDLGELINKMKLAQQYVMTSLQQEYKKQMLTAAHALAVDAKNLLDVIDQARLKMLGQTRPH

[5] = target: Insulin-like growth factor 1 receptor (Homo sapiens, UniProt P08069); assay: Navigating the Kinome. Panel member name: IGF1R; assay type: functional
Chain of Insulin-like growth factor 1 receptor (P08069 31-736 limits assumed): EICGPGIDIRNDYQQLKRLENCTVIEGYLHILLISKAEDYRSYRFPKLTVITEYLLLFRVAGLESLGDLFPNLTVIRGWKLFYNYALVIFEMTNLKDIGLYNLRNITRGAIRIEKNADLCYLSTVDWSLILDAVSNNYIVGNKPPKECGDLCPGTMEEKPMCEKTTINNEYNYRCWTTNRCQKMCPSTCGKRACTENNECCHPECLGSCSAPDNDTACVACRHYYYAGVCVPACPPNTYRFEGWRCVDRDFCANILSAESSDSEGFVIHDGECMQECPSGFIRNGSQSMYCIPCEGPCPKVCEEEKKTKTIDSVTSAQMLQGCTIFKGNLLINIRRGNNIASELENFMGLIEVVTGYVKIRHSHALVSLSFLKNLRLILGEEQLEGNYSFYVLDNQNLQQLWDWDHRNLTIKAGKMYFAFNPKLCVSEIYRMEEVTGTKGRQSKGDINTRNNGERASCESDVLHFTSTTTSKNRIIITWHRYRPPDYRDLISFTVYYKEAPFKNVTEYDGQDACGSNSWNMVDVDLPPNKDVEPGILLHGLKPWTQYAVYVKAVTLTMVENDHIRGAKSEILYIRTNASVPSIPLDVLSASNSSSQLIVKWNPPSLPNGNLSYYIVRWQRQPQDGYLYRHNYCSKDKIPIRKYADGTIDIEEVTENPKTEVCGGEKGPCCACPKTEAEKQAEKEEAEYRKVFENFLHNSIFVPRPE
Chain of Insulin-like growth factor 1 receptor (P08069 741-1367 limits assumed): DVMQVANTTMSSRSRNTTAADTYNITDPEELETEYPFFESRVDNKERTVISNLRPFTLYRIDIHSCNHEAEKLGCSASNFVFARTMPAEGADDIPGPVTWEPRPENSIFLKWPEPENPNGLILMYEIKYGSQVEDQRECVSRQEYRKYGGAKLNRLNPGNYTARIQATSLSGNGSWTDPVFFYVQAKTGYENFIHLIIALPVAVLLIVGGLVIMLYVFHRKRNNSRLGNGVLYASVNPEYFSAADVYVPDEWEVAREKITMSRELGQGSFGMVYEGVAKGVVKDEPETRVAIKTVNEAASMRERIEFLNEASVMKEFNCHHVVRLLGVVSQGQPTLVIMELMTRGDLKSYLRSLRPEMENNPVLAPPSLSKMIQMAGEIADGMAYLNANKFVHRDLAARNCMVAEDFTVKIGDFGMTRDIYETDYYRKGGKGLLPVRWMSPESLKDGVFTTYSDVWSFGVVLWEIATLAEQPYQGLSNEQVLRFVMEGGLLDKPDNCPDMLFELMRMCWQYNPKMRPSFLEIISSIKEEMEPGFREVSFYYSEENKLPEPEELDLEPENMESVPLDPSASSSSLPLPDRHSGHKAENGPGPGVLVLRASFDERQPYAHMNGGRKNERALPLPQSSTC

[6] = target: Cyclin-dependent kinase 8 (Homo sapiens, UniProt P49336); assay: Navigating the Kinome. Panel member name: CDK8; assay type: functional
Chain of Cyclin-dependent kinase 8 (P49336 whole entry): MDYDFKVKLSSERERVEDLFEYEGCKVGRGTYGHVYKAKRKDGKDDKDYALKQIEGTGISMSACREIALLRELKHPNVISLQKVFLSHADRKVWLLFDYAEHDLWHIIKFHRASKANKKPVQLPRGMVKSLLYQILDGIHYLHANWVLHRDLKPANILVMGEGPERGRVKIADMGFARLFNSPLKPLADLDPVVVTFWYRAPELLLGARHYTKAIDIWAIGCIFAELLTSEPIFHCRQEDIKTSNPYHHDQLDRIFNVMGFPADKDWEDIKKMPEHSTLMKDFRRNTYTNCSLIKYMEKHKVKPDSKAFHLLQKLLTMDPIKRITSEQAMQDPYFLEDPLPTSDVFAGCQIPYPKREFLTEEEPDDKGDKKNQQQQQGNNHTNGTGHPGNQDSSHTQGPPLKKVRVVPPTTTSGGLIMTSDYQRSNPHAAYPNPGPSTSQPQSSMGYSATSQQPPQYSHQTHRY

[7] = target: Dual specificity protein kinase CLK2 (Homo sapiens, UniProt P49760); assay type: functional
Chain of Dual specificity protein kinase CLK2 (P49760 whole entry): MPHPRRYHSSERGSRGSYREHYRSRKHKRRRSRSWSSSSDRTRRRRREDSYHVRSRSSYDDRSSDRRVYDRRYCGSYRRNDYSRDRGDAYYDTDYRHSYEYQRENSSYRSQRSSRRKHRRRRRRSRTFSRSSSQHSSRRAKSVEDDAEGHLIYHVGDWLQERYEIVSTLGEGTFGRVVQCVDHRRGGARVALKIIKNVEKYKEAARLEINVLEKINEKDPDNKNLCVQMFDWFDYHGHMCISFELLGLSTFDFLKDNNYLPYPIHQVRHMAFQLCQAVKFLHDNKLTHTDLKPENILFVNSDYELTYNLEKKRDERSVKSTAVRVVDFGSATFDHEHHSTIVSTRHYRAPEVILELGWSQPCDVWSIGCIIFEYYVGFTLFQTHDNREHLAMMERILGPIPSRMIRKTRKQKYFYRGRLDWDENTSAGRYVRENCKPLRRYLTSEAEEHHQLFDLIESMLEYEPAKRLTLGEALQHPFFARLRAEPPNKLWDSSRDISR

[8] = target: High affinity nerve growth factor receptor (Homo sapiens, UniProt P04629); assay type: functional;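 further: NTRK1 tested as one member of a kinome-wide profiling panel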
Chain of High affinity nerve growth factor receptor (P04629 whole entry): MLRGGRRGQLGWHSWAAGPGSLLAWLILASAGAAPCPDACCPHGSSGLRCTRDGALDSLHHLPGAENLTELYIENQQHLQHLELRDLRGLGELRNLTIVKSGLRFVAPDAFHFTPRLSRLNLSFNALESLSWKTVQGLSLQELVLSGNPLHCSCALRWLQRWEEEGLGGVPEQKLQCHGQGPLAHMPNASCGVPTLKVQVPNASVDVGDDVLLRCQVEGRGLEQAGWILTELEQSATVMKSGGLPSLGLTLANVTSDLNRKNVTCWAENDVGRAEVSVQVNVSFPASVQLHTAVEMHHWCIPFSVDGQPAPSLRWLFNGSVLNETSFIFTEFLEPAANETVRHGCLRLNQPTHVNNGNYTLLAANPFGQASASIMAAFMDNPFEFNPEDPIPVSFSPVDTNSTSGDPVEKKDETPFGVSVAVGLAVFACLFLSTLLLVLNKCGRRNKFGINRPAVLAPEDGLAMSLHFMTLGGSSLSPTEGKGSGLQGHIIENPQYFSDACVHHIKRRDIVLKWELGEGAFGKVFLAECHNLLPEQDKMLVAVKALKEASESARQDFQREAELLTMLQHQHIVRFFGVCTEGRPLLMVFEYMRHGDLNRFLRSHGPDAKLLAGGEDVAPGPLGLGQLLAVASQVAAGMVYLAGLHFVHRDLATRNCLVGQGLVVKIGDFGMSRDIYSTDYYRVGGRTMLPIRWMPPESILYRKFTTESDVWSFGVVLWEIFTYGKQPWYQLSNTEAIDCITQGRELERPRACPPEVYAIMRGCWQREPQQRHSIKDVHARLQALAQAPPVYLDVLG

Structure (SMILES): CCCNC(=O)c1c(N)n(CC2CCCO2)c2nc3ccccc3nc12 (stereo not drawn)
IC50 [1]: 58600 nM (active)

Structure (SMILES): O=C1/C(=C\c2cccc(O)c2O)SC(=S)N1Cc1ccccc1
AC50 [2]: 1260 nM (active)

Structure (SMILES): CC(C)(C)c1cc[n+](C2=C([N-]S(=O)(=O)c3cccs3)C(=O)c3ccccc3C2=O)cc1
AC50 [2]: 3180 nM (active)

Ki [3]: 501 nM (active)
Ki [4]: 398 nM (active)
Ki (Focal adhesion kinase 1): 2510 nM (active)
Ki [5]: > 2510 nM (inactive)
Ki [6]: 316 nM (active)
Ki [7]: > 3980 nM (inactive)
Ki [8]: 398 nM (active)
Structure (SMILES): COc1c(-c2nc3ccccc3[nH]2)c(O)cc2oc(C)cc(=O)c12

Ki [3]: 10000 nM (active)
Ki (Focal adhesion kinase 1): 79400 nM (active)
Ki [6]: 20000 nM (active)
Ki [7]: 63100 nM (active)
Structure (SMILES): COC(=O)c1c(N)nc2ccccn12

Structure (SMILES): CCc1ccc(S(=O)(=O)/N=C2\C=C(Nc3ccc(O)cc3)C(=O)c3ccccc32)cc1
IC50 [1]: 1970 nM (active)

Ki [4]: > 6310 nM (inactive)
Ki [5]: > 2510 nM (inactive)
Ki [8]: > 3160 nM (inactive)
Structure (SMILES): Cc1ccc(F)c(NC(=O)Nc2ccc(-c3cccc4[nH]nc(N)c34)cc2)c1 [LINIFANIB]
